One may read the IC50 as the concentration at which inhibition is half-maximal.

Values joined by “and” are separate entries in the source; they are usually repeats but may differ in a detail not shown here. Equal entries are not always repeated.

Series [1] relates to HEK293 cells. Briefly: MTT cytotoxicity assay, HEK293. In kind it is cell-based, human. As to conditions: 48 h, concentration range 0–200 μM. How it is done:
(§1) Cell cultures of H1299 and A549 cells were respectively maintained in RPMI-1640 and F12K cell growth medium, while HEK293 cells were maintained in DMEM (having 10% heat-inactivated FBS and 1% antibiotic-antimycotic solution) in a humidified CO2 incubator (5% CO2, 37 °C). These lung cancer cell lines were selected based on previous reports related to PDK3 [49]. Hordenine was evaluated for cell growth inhibition potential using the MTT assay as described. Briefly, the selected cells were plated in a 96-well culture plate (6000–7000 cells/well), and after 24 h cells were incubated with hordenine (0–200 μM) for 48 h. Following 48 h incubation of cells with hordenine, 25 µL MTT (from 5 mg/mL stock) was added and incubated for 4–5 h at 37 °C in a CO2 incubator. The resultant formazan was dissolved in 100 µL of DMSO and the absorbance was measured at 570 nm using a multiplate ELISA reader (BioRad). The percentage of cell viabilities was estimated using absorbance data and plotted as a function of hordenine concentration. Respective DMSO treatment was taken as vehicle control and subtracted from corresponding hordenine treatment groups, whereas for anticancer studies paclitaxel has been taken as a positive control.
(In general: Formazan colour is commonly taken as a measure of viable cells.)

The target of series [2] is T1, PDK3 (Homo sapiens, UniProt Q15120).
T1 construct: made in house
Briefly: Fluorescence binding (quenching, modified Stern-Volmer). As to conditions: PDK3 4 μM, modified Stern-Volmer equation; read-out: Binding constant (K) from fluorescence studies (converted). The procedure: The binding affinity of ligands to PDK3 was analyzed by monitoring changes in the fluorescence emission intensity of protein [33]. Fluorescence measurements were carried out on the Jasco spectrofluorimeter (FP-6200, Japan). The experimental parameters were, λexc as 280 nm and λem in the range of 300–400 nm with slit width: 10 nm and medium sensitivity. All the measurements were carried out in triplicates and blank subtracted spectra were reported. The observed fluorescence values were corrected for the inner filter effect. Protein was titrated with an increasing concentration of ligands and each titration of protein. A decrease in the fluorescence intensity was mathematically evaluated using the modified Stern-Volmer equation [35] to estimate the binding parameters for hordenine-PDK3 interaction.
To measure the actual binding affinity of hordenine to PDK3, fluorescence binding studies were performed as described. […] The decrease in fluorescence intensity was mathematically analyzed using a double log relation (modified Stern−Volmer equation) to find the value of binding constant (K).

For series [3], the system named is A549 cells. Briefly: MTT cell viability assay, A549. As to conditions: Homo sapiens, 48 h, 0–200 μM, read-out: IC50, growth inhibition of A549 cells. The class given is cell-based. The procedure: as §1
The target of series [4] is T1, PDK3. Kind of series: Enzyme inhibition assay (ATPase, malachite green). In kind it is biochemical. As to conditions: ATP 200 µM, PDK3 4 µM, 25 °C, 1 h; AAT Bioquest calculator. The procedure:
Following our published protocols, an enzyme inhibition assay was carried out. Freshly prepared ATP (200 µM) was added to PDK3 (4 µM) and final reaction mixture of 100 μL was incubated at 25 °C for 1 h. Malachite green (200 μL) was further added to the reaction mixture to stop the reaction followed by incubation of samples at room temperature for 20–25 min for the development of color. From the final reaction mixture, 100 μL was transferred to a 96-well plate in triplicate to measure spectrophotometrically at 620 nm.
To further validate our fluorescence-based binding studies, an enzyme inhibition assay was carried out with increasing concentrations of hordenine to check the kinase inhibitory potential. The kinase activity was quantified and plotted as percent inhibition. The kinase activity of PDK3 alone was taken as 100% for reference. It is clear from Figure 5 that with an increasing concentration of hordenine (0–13.75 µM), there was a dose-dependent decrease in PDK3 activity.

Series [5] relates to H1299 cells. Briefly: MTT cell viability assay, H1299. The class given is cell-based. As to conditions: Homo sapiens, NCI-H1299, 48 h, 0–200 μM, read-out: IC50, growth inhibition of H1299 cells. How it is done:
as §1

The target in series [6] is T1, PDK3. Kind of series: Isothermal titration calorimetry. In kind it is binding. Conditions: ITC 25 °C. The procedure:
ITC measurements were carried out at 25 °C on a VP-ITC microcalorimeter from MicroCal, Inc (GE, MicroCal, Northampton, MA, USA). The purified protein was extensively dialyzed and degassed before use to avoid the bubble problem. DMSO was added in an equal amount to the protein solution (1% v/v) to prevent signal stability problems during ITC measurements. The first injection was a false one (2 μL) and then successive injections of 10 μL followed by the initial false injection. The sample cell contained PDK3 while the syringe was filled with the hordenine. Data analysis was carried out using the attached MicroCal Origin 8.0. The values (Ka, ΔH, ΔS) were calculated after curve fitting as described in our previous communications.
Thermodynamic parameters associated with the interaction of hordenine to PDK3 were measured by ITC as described. […] Various studies report different values of thermodynamic parameters obtained from fluorescence spectroscopy and ITC and this is because ITC measures a global change in the thermodynamic properties while fluorescence spectroscopy takes into account only the local changes around the fluorophore (Trp214). In the upper panel, raw data with negative heat pulses is shown which confirms exothermic binding. Binding curves found after subtraction of dilution heat of both ligands and protein are depicted in the bottom section. The obtained ITC isotherm advocates the spontaneous binding of hordenine with PDK3. The results presented were obtained from four site model fitting and thermodynamic parameters obtained for this interaction are presented in Table 1.
Background: In ITC the heat of successive injections is recorded.

T1 sequence (Q15120 whole entry): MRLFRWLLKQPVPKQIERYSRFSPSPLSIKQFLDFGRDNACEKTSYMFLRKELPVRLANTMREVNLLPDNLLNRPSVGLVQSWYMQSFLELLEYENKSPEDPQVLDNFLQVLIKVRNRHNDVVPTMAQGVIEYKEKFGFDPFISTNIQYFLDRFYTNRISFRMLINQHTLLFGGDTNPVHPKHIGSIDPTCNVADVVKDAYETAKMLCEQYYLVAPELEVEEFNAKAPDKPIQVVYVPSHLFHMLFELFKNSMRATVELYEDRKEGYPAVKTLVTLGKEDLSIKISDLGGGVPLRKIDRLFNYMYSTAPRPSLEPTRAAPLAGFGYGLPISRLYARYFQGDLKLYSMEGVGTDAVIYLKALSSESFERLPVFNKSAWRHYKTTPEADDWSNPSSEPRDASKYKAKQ

`CN(C)CCc1ccc(O)cc1` [hordenine, Hordenine]: the “Growth inhibition / cytotoxicity on HEK293 cells” value in series [1] was “did not inhibit the growth of HEK293 cells”. Further, the Kd in series [2] is 1 µM and 2 µM; in series [6] (500 µM hordenine into 15 µM PDK3, four site model, site 1, read-out: Ka1 (Association Constant)), 51.3 µM; in series [6] (four site model, site 2, read-out: Ka2 (Association Constant)), 10.8 µM; in series [6] (four site model, site 3, read-out: Ka3 (Association Constant)), 19.6 µM; in series [6] (four site model, site 4 (printed Ka3), read-out: Ka3 (Association Constant), fourth line of the table) it was 400 µM. In addition, the IC50 is 15 ± 2.13 µM in series [3], 5.4 µM in series [4] and 21.3 ± 1.99 µM in series [5]. In series [6] (four site model, site 1), the “∆H1 (Enthalpy Change)” value is on record as “∆H1 = 4151 ± 1.2 × 10^3 cal/mol”. Further, the “∆S1” value in series [6] (four site model, site 1) is recorded as “∆S1 = 33.5 cal/mol/deg”. Moreover, the “∆H2 (Enthalpy Change)” value in series [6] (four site model, site 2) is listed as “∆H2 = −5.11 × 10^4 ± 4.18 × 10^3 cal/mol”. The “∆S2” value in series [6] (four site model, site 2) was “∆S2 = −149 cal/mol/deg”. In series [6] (four site model, site 3), the “∆H3 (Enthalpy Change)” value is on record as “∆H3 = 3.75 × 10^4 ± 5.20 × 10^3 cal/mol”. Moreover, the “∆S3” value in series [6] (four site model, site 3) was “∆S3 = 147 cal/mol/deg”. In series [6] (four site model, site 4), the “∆H4 (Enthalpy Change)” value was “∆H4 = −2.33 × 10^5 ± 1.03 × 10^4 cal/mol”. Moreover, the “∆S4” value in series [6] (four site model, site 4) is given as “∆S4 = −767 cal/mol/deg”.
